Results published in article PMC9785492 (Viruses, 2022).
Read-outs that look alike come from different tables or passages of the source.

What was measured:
in vitro = conditions: dog
[1] = test system: influenza A virus (A/Puerto Rico/8/34); test: microbe, parasite or virus in culture; conditions: MDCK, read-out: IC50, Inhibition of A/Puerto Rico/8/34 Infection
[2] = test system: influenza A virus (A/Puerto Rico/8/34); conditions: for IC50: read-out: IC50, Inhibition of A/Puerto Rico/8/34 Infection, MDCK cells, 100 TCID50, MTT-based, 48 h post-infection
A/FM-1/1/47 (H1N1) = test: microbe, parasite or virus in culture; type: cell-based; conditions: Influenza A virus, H1N1, MDCK
[3] = test system: clathrin-associated uptake of transferrin in A549 cells; test: Transferrin absorption test; conditions: pretreated 3 h, transferrin 15 µg/mL 30 min, Western blotting
[4] = test system: H5N1 pseudovirus A/Xinjiang/1/2006; test: organism not typed; type: cell-based, H5N1 IAV
[5] = test system: vesicular stomatitis virus G (VSV-G) PsV; type: cell-based
[6] = test system: IAV-induced Ca2+ influx in A549 cells; test: Intracellular Ca2+ level during IAV infection (BBcellProbeTMF3); type: cell-based, human; conditions: A/WSN/33
Cytotoxicity MTT assay = conditions: dog, MDCK cells
A/WSN/33 (H1N1) = test: microbe, parasite or virus in culture; type: cell-based, Influenza A virus (H1N1); conditions: Influenza A virus, MDCK
caveolin-1 = type: cell-based, human
[7] = test system: IAV proteins NP and PB2, NP mRNA; type: cell-based; conditions: MDCK cells
[8] = test system: IAV replication in A549 cells; type: cell-based; conditions: viral protein and gene
[9] = test system: H5N1 pseudovirus A/Qinghai/59/2005; test: organism not typed; type: cell-based, H5N1 IAV
A/Aichi/2/68 (H3N2) = test: microbe, parasite or virus in culture; type: cell-based; conditions: Influenza A virus, H3N2, MDCK
[10] = test system: H5N1 pseudovirus A/Anhui/1/2005; test: organism not typed; type: cell-based, H5N1 IAV
[11] = test system: clathrin-mediated endocytosis in A549 cells; test: Fluorescence confocal assay, Tf-568 uptake; type: cell-based, human; conditions: 20 μM, 3 h pre-treatment
[12] = test system: H5N1 pseudovirus A/Hong Kong/156/1997; test: organism not typed; type: cell-based, H5N1 IAV
[13] = test system: caveolin-mediated endocytosis in A549 cells; type: cell-based, human
[14] = test system: influenza viral polymerase activity; type: cell-based, Influenza A virus

COCCOC(=O)C1=C(C)NC(C)=C(C(=O)OC/C=C/c2ccccc2)C1c1cccc([N+](=O)[O-])c1 (centres unmarked) [Cilnidipine]
CC50 at 48 h (in vitro): > 200 µM
IC50 ([1]; 48 h): 14.3 ± 2.66 µM
SI (CC50/ IC50) ([2]; A/Puerto Rico/8/34): >14.02

COC(=O)C1=C(C)NC(C)=C(C(=O)OCC(C)C)C1c1ccccc1[N+](=O)[O-] (centres unmarked) [Nisoldipine]
IC50 (A/FM-1/1/47 (H1N1)): 6.96 ± 0.78 µM
internalization of transferrin [3]: markedly reduced
IC50 [4]: 3.87 ± 0.51 µM
inhibition of VSV-G PsV infection [5]: much less efficiency
IAV-induced Ca2+ influx [6]: inhibited
CC50 at 48 h (Cytotoxicity MTT assay): > 200 µM
IC50 (A/WSN/33 (H1N1)): 4.47 ± 0.25 µM
expression of caveolin-1 (caveolin-1): reduce the expression of caveolin-1
expression of IAV proteins NP and PB2 ([7]; Western blotting, dose-dependent): significantly inhibited
NP mRNA expression ([7]; qRT-PCR): decreased
IAV replication in A549 cells [8]: interfered with IAV replication
IC50 [9]: 5.84 ± 0.64 µM
IC50 (A/Aichi/2/68 (H3N2)): 5.68 ± 0.61 µM
IC50 [10]: 2.59 ± 0.46 µM
transferrin (Tf-568) uptake [11]: decreased
IC50 [12]: 4.47 ± 0.47 µM
CTB-FITC endocytosis (immunostaining) [13]: less immunostaining
influenza viral polymerase activity [14]: did not affect
IC50 [2]: 4.74 ± 0.76 µM

CCOC(=O)C1=C(C)NC(C)=C(C(=O)OC)C1c1cccc([N+](=O)[O-])c1 (centres unmarked) [Nitrendipine]
CC50 at 48 h (Cytotoxicity MTT assay): 171 ± 14.1 µM
SI (CC50/ IC50) [2]: 23.56
IC50 [2]: 7.26 ± 1.89 µM

COCCOC(=O)C1=C(C)NC(C)=C(C(=O)OC(C)C)C1c1cccc([N+](=O)[O-])c1 (centres unmarked) [Nimodipine]
CC50 at 48 h (Cytotoxicity MTT assay): > 200 µM
SI (CC50/ IC50) [2]: >15.58
IC50 [2]: 12.8 ± 1.72 µM

CC(=O)N[C@H]1[C@H]([C@H](O)[C@H](O)CO)OC(C(=O)O)=C[C@@H]1N=C(N)N [Zanamivir]
CC50 at 48 h (Cytotoxicity MTT assay): > 0.2 µM
IC50 [1]: 0.00126 ± 0.0003 µM
SI (CC50/ IC50) [2]: >158.73

methyl-β-cyclodextrin [MβCD]
CTB-FITC endocytosis (immunostaining) [13]: less immunostaining
